Key:
allergen-challenged mice = conditions: ref Matsumoto et al., 2009, cited from earlier work
murine CHIT1 [mCHIT1] = conditions: read-out: IC50 murine CHIT1; ref Zheng et al., 2005; Boot et al., 2001; cited from earlier work
[1] = system: Aspergillus fumigatus chitinase B1 (AfChiB1); parameters: method as in Schuttelkopf et al., 2011; conditions: ref Schuttelkopf et al., 2011; cited from earlier work
[2] = target: human chitotriosidase (hCHIT1) (Homo sapiens, UniProt Q13231); test: Chitinase activity assay with fluorescent 4-MU substrate, hCHIT1; format: biochemical; conditions: read-out: IC50 against hCHIT1
human chitotriosidase (hCHIT1), sequence (Q13231 22-466): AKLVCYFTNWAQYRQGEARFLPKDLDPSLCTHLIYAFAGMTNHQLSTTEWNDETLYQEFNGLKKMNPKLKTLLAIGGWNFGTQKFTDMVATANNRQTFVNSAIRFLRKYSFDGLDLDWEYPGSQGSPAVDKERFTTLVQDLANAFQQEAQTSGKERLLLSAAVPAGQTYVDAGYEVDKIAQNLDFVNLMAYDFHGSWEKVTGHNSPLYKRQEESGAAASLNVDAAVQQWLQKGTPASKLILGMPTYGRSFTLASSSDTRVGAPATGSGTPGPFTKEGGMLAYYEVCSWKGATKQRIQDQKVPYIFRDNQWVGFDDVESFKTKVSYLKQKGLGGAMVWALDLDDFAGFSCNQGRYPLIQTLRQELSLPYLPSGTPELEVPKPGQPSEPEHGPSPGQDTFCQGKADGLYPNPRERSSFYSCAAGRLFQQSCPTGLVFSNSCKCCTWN

IC50 [2]	SMILES	allergen or IL-13-induced airway hyperresponsiveness (allergen-challenged mice; Zhu et al., 2004)	eosinophilia in allergen-challenged mice (allergen-challenged mice; Zhu et al., 2004)	neutrophil recruitment in allergic mice (allergen-challenged mice)	IC50 (murine CHIT1 [mCHIT1])	ligand efficiency against AfChiB1 [1]
	CNC1=N[C@@H]2[C@@H](O)[C@H](O[C@@H]3O[C@H](CO)[C@@H](O[C@@H]4O[C@H](CO)[C@@H](O)[C@@H](O)[C@H]4NC(C)=O)[C@@H](O)[C@H]3NC(C)=O)[C@@H](CO)[C@@H]2O1 [demethylallosamidin]	reduces	significantly reduced	did not result in neutrophil recruitment		
	CC(=O)N[C@H]1[C@H](O[C@H]2[C@@H](O)[C@@H](NC(C)=O)[C@H](O[C@H]3[C@H](O)[C@H]4N=C(N(C)C)O[C@H]4[C@@H]3CO)O[C@@H]2CO)O[C@H](CO)[C@@H](O)[C@H]1O [allosamidin]		significantly reduced		~0.05 µM	
8.3 ± 0.7 µM	Cn1cnc2c1c(=O)n(CCCn1c(=O)c3c(ncn3C)n(C)c1=O)c(=O)n2C [bisdionin C]					−0.41 kcal·mol^−1·atom^−1
